The record followed here is patent US5294713A, “2-piperazinone compounds and their use” (Takeda Chemical Industries, Ltd., priority 1991, dated 1994).

One experiment deals with T1, GPIIb/IIIa (Homo sapiens, UniProt P05106+P08514).
T1 construct: Purification of GPIIb/IIIa from HEL Cells; endogenous in cells; host or cells: HEL cells (HEL 92.1.7; ATCC TIB180), human erythroleukemia; GPIIb/IIIa solubilized in Triton X-100, purified and adsorbed on microtiter plates
Briefly: Inhibition of fibrinogen binding to GPIIb/IIIa. The note with it: purified GPIIb/IIIa from HEL cells, biotinylated human fibrinogen 1 nM. How it is done: (1) Cultibation of Cells Derived from Human Erythroleukemia (Hereinafter Referred to as HEL Cells)
HEL cells (HEL 92. 1. 7; ATCC No. TIB180) were purchased from ATCC (Rockville, Md., U.S.A.). The cells were grown in RPMI medium containing 40 mM N-2-hydroxyethylpiperazin-N'-2-ethanesulfonic acid (hereinafter referred to as HEPES) (pH 7.0), 100 μg/ml of Kanamycin and 10% FCS (GIBCO Laboratories, Grand Island, N.Y., U.S.A.). Cultivation was conducted at 37° C in the presence of 5% CO2.
(2) Purification of GPIIb/IIIa from HEL Cells
Purification of GPIIb/IIIa was performed using the following modification of the method of L. A. Fitzgerald et al. [J. Biol. Chem., 262, 3936 (1987)]. The purification was conducted at room temperature unless specifically mentioned. From 7 L of the culture broth on 7th day of the cultibation (floating cells), the cells were collected by centrifugation (1,000×g, 10 minutes, 4° C.), which were washed with 20 mM Tris-HCl(pH 7.5) containing 1 mM EDTA and 150 mM NaCl. The cells were suspended in 80 ml of a solubilized buffer [20 mM Tris-HCl, 150 mM NaCl, 1% Triton X-100, 1 mM MgCl2, 1 mM CaCl2, 0.1 mM (p-amidinophenyl)methanesulfonyl fluoride (hereinafter referred to as APMSF), 10 nM leupeptin, 0.02% NaN3, pH 7.4)].
The cell suspension was gently mixed for 30 minutes at 4° C. to solubilize GPIIb/IIIa. The suspension was subjected to centrigugation (100,000×g, one hour) at 4° C. to remove cell debris to obtain a cell-extraction solution (60 ml). […] The fraction which passed through the column was charged on the ConA-Sepharose column (Pharmacia LKB, .phi. 1.0×15 cm, 20 ml/hr) to allow GPIIb/IIIa to be adsorbed thereon, then GPIIb/IIIa was eluted with column buffer solution containing 0.5 M methyl α-D-mannopyranoside. The eluate thus obtained was allowed to pass through the DEAE-Toyopearl 650 M column (Tosoh, .phi. 1.6×10.5 cm, 20 ml/hr) equilibrated with the same column buffer to remove contaminating proteins.
(3) Biotinylation of Human Fibrinogen
Biotinylation of human fibrinogen was performed by the following procedure [I. F. Charo et al., J. Biol. Chem., 266, 1415 (1991)]. Human fibrinogen (Kabi Vitrum AB, Stockholm, Sweden) was dissolved in PBS so as to make its concentration 5 mg/ml. The solution was dialyzed overnight at 4° C. against 1 L of 0.1 M NaHCO3 -0.1 M NaCl (pH 8.2). Insolubles were then removed by centrifugation (100,000×g, 30 minutes), and the solution was diluted with the same buffer to the protein concentration of 1 mg/ml. To thus-diluted solution was added powdery sulfo-N-hydroxysuccinimidobiotin (Pierce Chemical Co., Rockford, Ill., U.S.A.) so as to make its final concentration 0.2 mg/ml and gently mixed to perform biotinylate fibrinogen. The resultant was subjected to dialysis against 50 mM Tris-HCl (pH 7.4) - 100 mM NaCl-0.05% NaN3. The dialysate was distributed and stored at 4° C.
(4) Inhibition Assay for Fibrinogen Binding to GPIIb/IIIa
This experiment was performed using a modification of the method described in the above-mentioned I. F. Charo et al. report. The purified GPIIb/IIIa was diluted with the buffer A (20 mM Tris-HCl, 150 mM NaCl, 1 mM CaCl2, 0.02% NaN3, pH 7.4) to a concentration of 1 μg/ml. The diluted solution was added to 96-well microtiter plates (MaxiSorp; Nunc, Denmark) at 100 μl per well, which were left standing at 4° C. overnight to allow GPIIb/IIIa to be adsorbed on the microplates. The plate was aspirated, and then 150 μl of the buffer B (35 mg/ml BSA, 50 mM Tris-HCl, 100 mM NaCl, 2 mM CaCl2, 0.02%, NaN3, pH 7.4) was added to the plate, and blocking was performed at 30° C. for 2 hours. The plate was washed twice with 250 μl each of the buffer C (1 mg/ml BSA, 50mM Tris-HCl, 100 mM NaCl, 2 mM CaCl2, pH 7.4).

Experiment [1] has as its system guinea pig platelet aggregation. Briefly: Inhibitory action on guinea pig platelet aggregation (ADP-stimulated PRP). Format: cell-based. The note with it: Cavia porcellus, ADP final concentration 1 μM, in vitro, read-out: Inhibitory effect on platelet aggregation in vitro (IC50) guinea pig. How it is done: TEST EXAMPLE 1 [I] Inhibitory action on guinea pig platelet aggregation
Blood was collected in 3.15% sodium citrate (1 ml for 9 ml of blood) by cardiac puncture from male guinea pig. The blood was centrifuged at 1000 g for 3 to 5 seconds at room temperature to obtain platelet rich plasma (PRP). The PRP was further centrifuged at 1000 g for 10 minutes to obtain platelet poor plasma (PPP). The number of platelets was measured using an automatic blood cell counter (Sysmex E2500, Toaiyou-densi). The platelet density of PRP was adjusted to 400,000/μl with PPP. Platelet aggregation was measured using an 8-channel aggregometer (NBS HEMA TRACER VI Niko Bioscience Inc.). The PRP (250 μl ) was preincubated at 37° C. for 2 minutes. and then incubated for 2 minutes. with 25 μl of physiological saline or various concentrations of test drugs followed by stimulation with ADP (final concentration: 1 μM). By comparing the maximum aggregation rates of the control and those of test drugs, the inhibitory rates were determined. The results are shown in [Table 1]-[Table 3].

Experiment [2] concerns human platelet aggregation. Briefly: Inhibitory action on human platelet aggregation (ADP-stimulated PRP). The settings on record: ADP final concentration 3 μM, in vitro, read-out: Inhibitory effect on platelet aggregation in vitro (IC50) man. The format is cell-based. How it is done: [II] Inhibitory action on human platelet aggregation
Human blood was collected in 3.8% sodium citrate (1 ml for 9 ml of blood) by venipuncture from healthy male volunteers. The blood was centrifuged at 1000 g for 3 to 5 seconds at room temperature to obtain platelet rich plasma (PRP). The PRP was further centrifuged at 1000 g for 10 minutes to obtain platelet poor plasma (PPP). The number of platelets was measured using an automatic blood cell counter (Sysmex E2500, Toaiyou-densi). The platelet density of PRP was adjusted to 300,000/μl with PPP. Platelet aggregation was measured using an 8-channel aggregometer (NBS HEMA TRACER VI Niko Bioscience Inc.). The PRP (250 μl) was preincubated at 37° C. for 2 minutes. and then incubated for 2 minutes. with 25 μl of physiological saline or various concentrations of test drugs followed by stimulation with ADP (final concentration: 3 μM). By comparing the maximum aggregation rates of the control and those of test drugs, the inhibitory rates were determined. The results are shown in [Table 1]-[Table 3].

T1 sequence (P08514 32-887 limits assumed): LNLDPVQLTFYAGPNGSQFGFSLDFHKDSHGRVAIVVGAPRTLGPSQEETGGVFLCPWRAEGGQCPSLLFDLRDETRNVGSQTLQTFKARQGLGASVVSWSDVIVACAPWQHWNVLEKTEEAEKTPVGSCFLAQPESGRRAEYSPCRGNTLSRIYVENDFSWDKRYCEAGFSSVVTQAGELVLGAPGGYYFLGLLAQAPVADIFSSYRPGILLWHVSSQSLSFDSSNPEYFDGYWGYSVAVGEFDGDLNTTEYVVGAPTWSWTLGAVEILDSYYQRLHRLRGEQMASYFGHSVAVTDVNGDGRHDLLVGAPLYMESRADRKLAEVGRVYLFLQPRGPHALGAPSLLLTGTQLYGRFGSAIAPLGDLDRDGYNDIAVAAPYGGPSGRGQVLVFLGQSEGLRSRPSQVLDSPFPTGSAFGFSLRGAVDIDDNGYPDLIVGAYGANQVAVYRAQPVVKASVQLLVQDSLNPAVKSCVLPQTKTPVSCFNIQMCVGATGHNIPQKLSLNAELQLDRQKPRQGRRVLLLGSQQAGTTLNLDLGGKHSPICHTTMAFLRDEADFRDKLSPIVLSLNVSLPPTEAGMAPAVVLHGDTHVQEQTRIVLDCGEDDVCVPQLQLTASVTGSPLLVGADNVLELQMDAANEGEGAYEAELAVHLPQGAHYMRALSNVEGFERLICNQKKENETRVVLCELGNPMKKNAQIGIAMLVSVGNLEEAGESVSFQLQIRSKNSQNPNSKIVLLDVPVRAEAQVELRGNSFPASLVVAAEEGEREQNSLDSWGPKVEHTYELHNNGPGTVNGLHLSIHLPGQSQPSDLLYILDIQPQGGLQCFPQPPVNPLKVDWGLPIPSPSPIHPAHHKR
T1 sequence (P08514 891-1039 limits assumed): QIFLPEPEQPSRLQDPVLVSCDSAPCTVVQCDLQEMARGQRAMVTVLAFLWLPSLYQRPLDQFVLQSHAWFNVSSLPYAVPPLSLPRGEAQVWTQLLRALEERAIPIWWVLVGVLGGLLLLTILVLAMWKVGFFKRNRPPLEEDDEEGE
T1 sequence (P05106 27-788): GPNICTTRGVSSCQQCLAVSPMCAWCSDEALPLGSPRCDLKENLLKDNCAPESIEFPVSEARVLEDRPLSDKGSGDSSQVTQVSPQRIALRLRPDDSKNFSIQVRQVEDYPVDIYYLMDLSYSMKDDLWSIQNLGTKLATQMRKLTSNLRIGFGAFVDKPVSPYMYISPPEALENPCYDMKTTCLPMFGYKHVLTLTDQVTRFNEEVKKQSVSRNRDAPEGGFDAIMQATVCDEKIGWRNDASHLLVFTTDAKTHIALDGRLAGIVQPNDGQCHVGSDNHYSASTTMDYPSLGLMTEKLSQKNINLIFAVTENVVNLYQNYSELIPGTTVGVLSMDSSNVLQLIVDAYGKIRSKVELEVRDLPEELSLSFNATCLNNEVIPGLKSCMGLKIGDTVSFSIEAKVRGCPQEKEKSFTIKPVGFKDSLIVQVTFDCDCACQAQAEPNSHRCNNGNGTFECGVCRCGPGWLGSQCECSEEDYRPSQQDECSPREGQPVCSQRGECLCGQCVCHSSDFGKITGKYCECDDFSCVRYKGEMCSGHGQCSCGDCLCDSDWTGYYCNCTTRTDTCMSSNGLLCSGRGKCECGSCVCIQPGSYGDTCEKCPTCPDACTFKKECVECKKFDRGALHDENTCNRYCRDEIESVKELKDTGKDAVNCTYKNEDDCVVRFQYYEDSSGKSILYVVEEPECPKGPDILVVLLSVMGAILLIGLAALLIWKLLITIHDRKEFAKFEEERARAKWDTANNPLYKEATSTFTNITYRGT

Turning to `COC(=O)C[C@H]1C(=O)N(CC(=O)O)CCN1C(=O)CNC(=O)c1ccc(C(=N)N)cc1` [compound 59], the IC50 was 0.49 nM on GPIIb/IIIa, 56 nM in experiment [1] and 48 nM in experiment [2].

For `COC(=O)C[C@H]1C(=O)N(CC(=O)O)CCN1C(=O)CNC(=O)c1ccc(CCN)cc1` [compound 60], the 50% inhibitory concentration (IC50) at GPIIb/IIIa worked out at 0.91 nM; in experiment [1], 78 nM; in experiment [2], 93 nM.

Take `CC(C)(C)C(=O)OCOC(=O)CN1CCN(C(=O)CNC(=O)c2ccc(C(=N)N)cc2)[C@@H](Cc2ccccc2)C1=O` [compound 63]: the IC50 on GPIIb/IIIa was 8.9 nM; in experiment [1] it was 460 nM; in experiment [2] it was 720 nM.

For `N=C(N)c1ccc(C(=O)NCC(=O)N2CCN(CC(=O)O)C(=O)[C@@H]2CCC(=O)O)cc1` [compound 66], the IC50 is 0.2 nM on GPIIb/IIIa, 66 nM in experiment [1] and 52 nM in experiment [2].

For `C[C@@H](C(=O)O)N1CCN(C(=O)CNC(=O)c2ccc(C(=N)N)cc2)[C@@H](CC(=O)O)C1=O` [compound 69], the IC50 at GPIIb/IIIa is 19 nM; in experiment [1] it was 1500 nM; in experiment [2] it was 1600 nM.

`N=C(N)c1ccc(C(=O)NCC(=O)N2CCN(CC(=O)O)C(=O)[C@@H]2CC(N)=O)cc1` [compound 71]: the values for the IC50 (at GPIIb/IIIa; in experiment [1]; in experiment [2]) were 0.92 nM, 110 nM and 74 nM, respectively.

With `NCCc1ccc(C(=O)NCC(=O)N2CCN(CC(=O)O)C(=O)[C@@H]2CCC(=O)O)cc1` [compound 76], the IC50 at GPIIb/IIIa came to 1 nM; in experiment [1], 110 nM; in experiment [2] it was 150 nM.

As to `CN(C)CCc1ccc(C(=O)NCC(=O)N2CCN(CC(=O)O)C(=O)[C@@H]2CCC(=O)O)cc1` [compound 77], the IC50 on GPIIb/IIIa amounted to 45 nM; in experiment [1], 2500 nM; in experiment [2] it was 4700 nM.

For `COC(=O)CC[C@H]1C(=O)N(CC(=O)O)CCN1C(=O)CNC(=O)c1ccc(CCN)cc1` [compound 80], the IC50 on GPIIb/IIIa worked out at 0.89 nM; in experiment [1] it was 120 nM; in experiment [2] it was 110 nM.

For `NCCc1ccc(C(=O)NCC(=O)N2CCN(CC(=O)O)C(=O)[C@@H]2CCC(N)=O)cc1` [compound 84], the IC50 on GPIIb/IIIa was found to be 1 nM; in experiment [1] it was 110 nM; in experiment [2] it was 120 nM.

For `CN(C)CCc1ccc(C(=O)NCC(=O)N2CCN(CC(=O)O)C(=O)[C@@H]2CCC(N)=O)cc1` [compound 85], the IC50 is 32 nM at GPIIb/IIIa, 4100 nM in experiment [1] and 5600 nM in experiment [2].

As for `NCCc1ccc(C(=O)NCC(=O)N2CCN(CC(=O)O)C(=O)C2)cc1` [compound 87], the IC50 at GPIIb/IIIa was found to be 1.6 nM; in experiment [1], 150 nM; in experiment [2], 180 nM.

As to `NCCc1ccc(C(=O)NCC(=O)N2CCN(CC(=O)O)C(=O)[C@@H]2CC(N)=O)cc1` [compound 88], the results for the IC50 (on GPIIb/IIIa; in experiment [1]; in experiment [2]) were 2.3 nM, 84 nM and 140 nM, respectively.

With `NCCc1ccc(C(=O)NCC(=O)N2CCN(CC(=O)O)C(=O)[C@@H]2Cc2ccccc2)cc1` [compound 89], the IC50 is 3.6 nM on GPIIb/IIIa, 200 nM in experiment [1] and 380 nM in experiment [2].
